# Test results taken from patent US20230146455A1, “TREATMENT OF INFLAMMATORY DISEASES WITH PEPTIDES AND PHARMACEUTICAL COMPOSITIONS” (Yuyu Pharma, Inc., priority 2020, published 2023).
# Values joined by “and” are separate entries in the source; they are usually repeats but may differ in a detail not shown here. Equal entries are not always repeated. Where a SMILES comes first, the peptide text is derived from it. [ ]: non-standard residue; d: D form. Hyp = O=C(O)[C@@H]1C[C@@H](O)CN1
# System: VEGF-A
# Test: Example 9 Luminex, LPS hPBMCs: VEGF-A
# Format: cell-based, human
# Protocol: Treatment Human PBMCs were pretreated with YY-101, YDE-011 and YDE-043 or reference compound; Xiidra® at various concentration (ranging from 1 nM to 100 uM) for 2 h before stimulation. An equal volume of 0.5% DMSO was used as a vehicle control. Then, the cells were treated with LPS at 5 ug/ml. The supernatants from treated cells were harvested at 24 h and placed in a 96 well for Luminex cytokine & chemokine profiling using a Luminex 200 multiplex assay (Luminex; R&D system, USA).
# The main study arm with triplicate wells per group in a 24-well plate: • 1. Blank • 2. PBMC: 0.5% DMSO • 3. PBMC+LPS (5 ug/ml) • 4. PBMC+YY-101 100 uM • 5. PBMC+YY-101 10 uM • 6. PBMC+YY-101 1 uM • 7. PBMC+YY-101 0.1 uM • 8. PBMC+YY-101 0.01 uM • 9. PBMC+LPS (5 ug/ml)+Xiidra®100 uM • 10. PBMC+LPS (5 ug/ml)+Xiidra® 10 uM • 11. PBMC+LPS (5 ug/ml)+Xiidra® 1 uM • 12. PBMC+LPS (5 ug/ml)+Xiidra®0.1 uM • 13. PBMC+LPS (5 ug/ml)+Xiidra®0.01 uM • 14. PBMC+LPS (5 ug/ml)+Xiidra®0.001 uM • 15. PBMC+LPS (5 ug/ml)+YY-101 100 uM • 16. PBMC+LPS (5 ug/ml)+YY-101 10 uM • 17. PBMC+LPS (5 ug/ml)+YY-101 1 uM • 18. PBMC+LPS (5 ug/ml)+YY-101 0.1 uM • 19. PBMC+LPS (5 ug/ml)+YY-101 0.01 uM • 20. PBMC+LPS (5 ug/ml)+YY-101 0.001 uM • 21. PBMC+LPS (5 ug/ml)+YDE-011 100 uM • 22. PBMC+LPS (5 ug/ml)+YDE-011 10 uM • 23. PBMC+LPS (5 ug/ml)+YDE-011 1 uM • 24. PBMC+LPS (5 ug/ml)+YDE-011 0.1 uM • 25. PBMC+LPS (5 ug/ml)+YDE-011 0.01 uM • 26. PBMC+LPS (5 ug/ml)+YDE-011 0.001 uM • 27. PBMC+LPS (5 ug/ml)+YDE-043 100 uM • 28. PBMC+LPS (5 ug/ml)+YDE-043 10 uM • 29. PBMC+LPS (5 ug/ml)+YDE-043 1 uM • 30. PBMC+LPS (5 ug/ml)+YDE-043 0.1 uM • 31. PBMC+LPS (5 ug/ml)+YDE-043 0.01 uM • 32. PBMC+LPS (5 ug/ml)+YDE-043 0.001 uM
# Multiplex assay was used to measure 30 cytokines and chemokines. The 1:2, 1:10 and 1:200 diluted cell supernatant and serial dilution of the standard were dispensed into a 96 well plate at 50 ul/well. Then, the pre-mixed cocktail of antibody-coated magnetic beads was dispensed at 50 ul/well and incubated at room temperature for 2 h in a horizontal orbital microplate shaker at 800±500 rpm. The beads were washed using a magnetic device to prevent loss. The biotin-antibody was dispensed in 50 ul of each well and incubated at room temperature for 1 h in a shaker at 800±500 rpm. After washing, streptavidin-PE was added at 50 ul/well and incubated at room temperature for 30 min in a shaker under the same conditions. Finally, after washing, wash buffer (100 ul/well) was added to the plate and incubated in a shaker for 2 min. The Luminex™ 200 setting were set according to the manufacturer's protocol. The data was calculated with a standard five-parameter logistic nonlinear regression analysis of the data (xPonent software 4.2, USA). The levels of cytokine/chemokine are normalized to the live cell counts (1×10^5 cells/mL) and presented as concentrations per mL (pg/mL or ng/mL).
# [1] = PBMC + LPS(5 ug/ml) + test article 0.001 uM, Mean
# [2] = PBMC + LPS(5 ug/ml) + test article 0.001 uM, single replicates
# [3] = PBMC + LPS(5 ug/ml) + test article 0.01 uM, Mean
# [4] = PBMC + LPS(5 ug/ml) + test article 0.01 uM, single replicates
# [5] = PBMC + LPS(5 ug/ml) + test article 0.1 uM, Mean
# [6] = PBMC + LPS(5 ug/ml) + test article 0.1 uM, single replicates
# [7] = PBMC + LPS(5 ug/ml) + test article 1 uM, Mean
# [8] = PBMC + LPS(5 ug/ml) + test article 1 uM, single replicates
# [9] = PBMC + LPS(5 ug/ml) + test article 10 uM, Mean
# [10] = PBMC + LPS(5 ug/ml) + test article 10 uM, single replicates
# [11] = PBMC + LPS(5 ug/ml) + test article 100 uM, Mean
# [12] = PBMC + LPS(5 ug/ml) + test article 100 uM, single replicates
# [13] = PBMC + test article 0.01 uM, no LPS, Mean
# [14] = PBMC + test article 0.01 uM, no LPS, single replicates
# [15] = PBMC + test article 0.1 uM, no LPS, Mean
# [16] = PBMC + test article 0.1 uM, no LPS, single replicates
# [17] = PBMC + test article 1 uM, no LPS, Mean
# [18] = PBMC + test article 1 uM, no LPS, single replicates
# [19] = PBMC + test article 10 uM, no LPS, Mean
# [20] = PBMC + test article 10 uM, no LPS, single replicates
# [21] = PBMC + test article 100 uM, no LPS, Mean
# [22] = PBMC + test article 100 uM, no LPS, single replicates
smiles,measurement,setting,value
CC(C)C[C@H](NC(=O)CNC(=O)[C@H](CC(=O)O)NC(=O)[C@H](CCC(N)=O)NC(=O)CNC(=O)[C@@H]1C[C@@H](O)CN1)C(=O)N[C@@H](C)C(=O)NCC(=O)N1CCC[C@H]1C(=O)N[C@@H](CCCCN)C(=O)O [YY-101] (H-[Hyp]GQDGLAGPK-OH; N-terminus and C-terminus assumed),"Concentration, Bead name: VEGF-A",[1],3.0 pg/mL
same,"MFI, Bead name: VEGF-A",[1],−0.9
same,"conc/live cell, Bead name: VEGF-A",[1],0.4 pg/10^5
same,"Concentration, Bead name: VEGF-A",[2],2.2 pg/mL and 6.1 pg/mL and 0.6 pg/mL
same,"MFI, Bead name: VEGF-A",[2],−1.3 and 0.3 and −1.8
same,"conc/live cell, Bead name: VEGF-A",[2],0.4 pg/10^5 and 0.9 pg/10^5 and 0.1 pg/10^5
same,"Concentration, Bead name: VEGF-A",[3],0.6 pg/mL
same,"MFI, Bead name: VEGF-A",[3],−3.1
same,"conc/live cell, Bead name: VEGF-A",[3],0.0 pg/10^5
same,"Concentration, Bead name: VEGF-A",[4],0.6 pg/mL
same,"MFI, Bead name: VEGF-A",[4],−1.8 and −3.8 (2×)
same,"conc/live cell, Bead name: VEGF-A",[4],0.1 pg/10^5 and 0.0 pg/10^5 (2×)
same,"Concentration, Bead name: VEGF-A",[5],2.6 pg/mL
same,"MFI, Bead name: VEGF-A",[5],−1.1
same,"conc/live cell, Bead name: VEGF-A",[5],0.4 pg/10^5
same,"Concentration, Bead name: VEGF-A",[6],3.6 pg/ml (2×) and 0.6 pg/ml
same,"MFI, Bead name: VEGF-A",[6],−0.8 (2×) and −1.8
same,"conc/live cell, Bead name: VEGF-A",[6],0.6 pg/10^5 (2×) and 0.1 pg/10^5
same,"Concentration, Bead name: VEGF-A",[7],2.9 pg/mL
same,"MFI, Bead name: VEGF-A",[7],−1.4
same,"conc/live cell, Bead name: VEGF-A",[7],0.3 pg/10^5
same,"Concentration, Bead name: VEGF-A",[8],2.2 pg/mL and 3.6 pg/mL
same,"MFI, Bead name: VEGF-A",[8],−2.3 and −1.3 and −0.8
same,"conc/live cell, Bead name: VEGF-A",[8],0.0 pg/10^5 and 0.3 pg/10^5 and 0.6 pg/10^5
same,"Concentration, Bead name: VEGF-A",[9],2.7 pg/mL
same,"MFI, Bead name: VEGF-A",[9],−1.1
same,"conc/live cell, Bead name: VEGF-A",[9],0.4 pg/10^5
same,"Concentration, Bead name: VEGF-A",[10],2.2 pg/ml (2×) and 3.6 pg/ml
same,"MFI, Bead name: VEGF-A",[10],−1.3 (2×) and −0.8
same,"conc/live cell, Bead name: VEGF-A",[10],0.4 pg/10^5 and 0.3 pg/10^5 and 0.5 pg/10^5
same,"Concentration, Bead name: VEGF-A",[11],4.3 pg/mL
same,"MFI, Bead name: VEGF-A",[11],−0.4
same,"conc/live cell, Bead name: VEGF-A",[11],0.7 pg/10^5
same,"Concentration, Bead name: VEGF-A",[12],6.1 pg/ml (2×) and 0.6 pg/ml
same,"MFI, Bead name: VEGF-A",[12],0.3 (2×) and −1.8
same,"conc/live cell, Bead name: VEGF-A",[12],1.0 pg/10^5 (2×) and 0.1 pg/10^5
same,"Concentration, Bead name: VEGF-A",[13],8.4 pg/mL
same,"MFI, Bead name: VEGF-A",[13],1.3
same,"conc/live cell, Bead name: VEGF-A",[13],1.7 pg/10^5
same,"Concentration, Bead name: VEGF-A",[14],10.7 pg/mL and 6.1 pg/mL
same,"MFI, Bead name: VEGF-A",[14],2.3 and 0.3
same,"conc/live cell, Bead name: VEGF-A",[14],2.1 pg/10^5 and 1.3 pg/10^5
same,"Concentration, Bead name: VEGF-A",[15],7.3 pg/mL
same,"MFI, Bead name: VEGF-A",[15],0.8
same,"conc/live cell, Bead name: VEGF-A",[15],1.4 pg/10^5
same,"Concentration, Bead name: VEGF-A",[16],6.1 pg/mL and 8.5 pg/mL
same,"MFI, Bead name: VEGF-A",[16],0.3 and 1.3
same,"conc/live cell, Bead name: VEGF-A",[16],1.4 pg/10^5 and 1.5 pg/10^5
same,"Concentration, Bead name: VEGF-A",[17],7.3 pg/mL
same,"MFI, Bead name: VEGF-A",[17],0.8
same,"conc/live cell, Bead name: VEGF-A",[17],1.3 pg/10^5
same,"Concentration, Bead name: VEGF-A",[18],8.5 pg/mL and 6.1 pg/mL
same,"MFI, Bead name: VEGF-A",[18],1.3 and 0.3
same,"conc/live cell, Bead name: VEGF-A",[18],1.5 pg/10^5 and 1.1 pg/10^5
same,"Concentration, Bead name: VEGF-A",[19],7.9 pg/mL
same,"MFI, Bead name: VEGF-A",[19],1.0
same,"conc/live cell, Bead name: VEGF-A",[19],1.3 pg/10^5
same,"Concentration, Bead name: VEGF-A",[20],7.3 pg/mL and 8.5 pg/mL
same,"MFI, Bead name: VEGF-A",[20],0.8 and 1.3
same,"conc/live cell, Bead name: VEGF-A",[20],1.1 pg/10^5 and 1.4 pg/10^5
same,"Concentration, Bead name: VEGF-A",[21],3.6 pg/mL
same,"MFI, Bead name: VEGF-A",[21],−0.8
same,"conc/live cell, Bead name: VEGF-A",[21],0.5 pg/10^5
same,"Concentration, Bead name: VEGF-A",[22],3.6 pg/mL
same,"MFI, Bead name: VEGF-A",[22],−0.8
same,"conc/live cell, Bead name: VEGF-A",[22],0.6 pg/10^5 and 0.5 pg/10^5
